The text below walks through data of patent US20260001914A1, “MACROCYCLIC PEPTIDES TARGETING KRAS” (Merck Sharp & Dohme LLC, priority 2022, published 2026).

First the molecules themselves.
B1: cyclo(F-R-Y-L-V-Ahp-NMeF-dC-C1Ac) (peptide)
peptide: {CH2CO}-FRYLV[Ahp(2)][NMeF][dC]
modifications: thioether N-8 (inferred); not fully specified (C-terminus); printed as cyclo(F-R-Y-L-V-Ahp-NMeF-dC-C1Ac)

*1 amine or outer side, *2 acyl side, *3 side chain or, on linkers, in order; H or OH if unused. Where a SMILES comes first, the peptide text is derived from it. Bridges are numbered along the chain shown (N, C = ends). Where no end group is shown, it is not given here. [ ]: non-standard residue; d: D form. cBu(1-CO,cis-3-CH2NH) = O=C([C@H]1C[C@@H](CN[*:1])C1)[*:2]; Phe(4-guanidino) = N=C(N)Nc1ccc(C[C@H](N)C(=O)O)cc1; X22 = CNC(=N)N(C)CCC[C@@H](C(=O)[*:2])N(C)[*:1]; Ala(pyrimidin-5-yl) = N[C@@H](Cc1cncnc1)C(=O)O; X6 = O=C([C@H](Cc1cnn(C2COC2)c1)N[*:1])[*:2]; NMeHis(τ-Me) = CN[C@@H](Cc1cn(C)cn1)C(=O)O; X3 = CN([C@@H](Cc1cncnc1)C(=O)[*:2])[*:1]; X46 = O=C([C@H](Cc1cccnc1F)N[*:1])[*:2]; NMeAha = CN[C@@H](CCN=[N+]=[N-])C(=O)O; X35 = CN([C@@H](CCCF)C(=O)[*:2])[*:1]; Ala(cPent) = N[C@@H](CC1CCCC1)C(=O)O; Phe(2-F) = N[C@@H](Cc1ccccc1F)C(=O)O; NMe3Pal = CN[C@@H](Cc1cccnc1)C(=O)O; X1 = O=C(C12CC(CN[*:1])(C1)C2)[*:2]; X12 = CC(=O)NCCCN(CC(=O)[*:2])[*:1]; Ala(cPr) = N[C@@H](CC1CC1)C(=O)O; NMeF = CN[C@@H](Cc1ccccc1)C(=O)O; PhLac = O=C(O)[C@@H](O)Cc1ccccc1; X9 = CCCC[C@H](O[*:1])C(=O)[*:2]; 3Pal = N[C@@H](Cc1cccnc1)C(=O)O; Ahp(2) = CCCCC[C@H](N)C(=O)O; Cba = N[C@@H](CC1CCC1)C(=O)O; hLeu = CC(C)CC[C@H](N)C(=O)O; NMeS = CN[C@@H](CO)C(=O)O; αMeC = C[C@](N)(CS)C(=O)O; NMeA = CN[C@@H](C)C(=O)O; Nle = CCCC[C@H](N)C(=O)O; Nva = CCC[C@H](N)C(=O)O Bounds are passed on as bounds.

One test deals with Biotin-labeled KRAS-G12D protein (UniProt P01116-2 1-169, limits assumed, biotin label (site not stated); loaded with BODIPY-GDP). Description: cell-based or functional assay.
Conditions: not given
The molecule “cyclo(INal-R-K-Nle-Phe3AcOH-Nle-NMeF-Cysteamine-C1Ac) (peptide)” showed an SOS assay EC50 of 2.65 µM.

For the molecule “cyclo(F-R-3Pal-cBuA-TyrOMe-AheNMeHag-aMeC-C1Ac) peak 2 (peptide)”, the SOS assay EC50 was found to be 0.65 µM. On to “cyclo(Phe4F-R-4Pal-L-TyrOMe-Nva-NMeF-dC1-C1Ac) (peptide)”, for which the SOS assay EC50 was 1.17 µM. Still for that read-out and setting: in the case of “cyclo(F-R-Phe4Gn-Nle-TyrOMe-Nle-NMeF-SamHex) (peptide)” it was 0.142 µM; in that of “cyclo(F-NMeR-d3Pal-NMeNle-Phe2F-Nle-NMe3Pal-amBCP) (peptide)”, 1.2 µM; in that of “cyclo(F-R-3Pal-Nle-PraMe-Nle-NMe3Pal-aMeC1-C1Ac) (peptide)”, 3.07 µM. The molecule “cyclo(INal-R-4Pal-L-TyrOMe-Nva-NMeF-dC1-C1Ac) (peptide)” had an SOS assay EC50 of 0.935 µM.

On to “cyclo(F-R-d3Pal-cBuA-Phe2F-Nle-NMe3Pal-amBYA) (peptide)”, for which the SOS assay EC50 amounted to 0.387 µM. Consider “cyclo(F-R-Phe4Gn-Nle-TyrOMe-Nle-NMeF-acBu) (peptide)”, for which the SOS assay EC50 was found to be 0.0138 µM. On the same count and under the same terms, in the case of “cyclo(NMeF-NMeNvalmid-3Pal-Nle-Phe2F-LysN3-NMe3Pal-c3amCb1c) (peptide)” it was 7.76 µM; in that of “cyclo(1Nal-R-Phe4CH2NHAc-Nle-Y-Nle-NMeF-daMeC-C1Ac) (peptide)”, 7.03 µM. The same measure, in the same setting: in the case of B1 it was 7.14 µM.

A further test concerns the target phosphorylation levels of ERK1/2 in AsPC-1 (homozygous KRAS-G12D) cells (Homo sapiens, UniProt P01116, G12D). Nature of the test: Cellular phospho-ERK assay in AsPC-1 cells (Alpha Screen), assay medium without fetal bovine serum.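 Further: signal taken as phospho-ERK over total ERK per well, both detected in one multiplex bead assay, EC50 from four-parameter logistic fit of dose-response curves.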 The test is classed as cell-based. The settings on record: phospho-ERK AlphaScreen, 18 h.
In the case of `CCCC[C@@H]1NC(=O)[C@H](Cc2cccnc2)NC(=O)[C@H](CO)N(C)C(=O)[C@H](Cc2ccccc2)OC(=O)C23CC(CNC(=O)[C@H](Cc4cccnc4)N(C)C(=O)[C@H](CCCC)NC(=O)[C@H](Cc4ccccc4F)NC1=O)(C2)C3` [compound 118, cyclo(FLac-NMeS-3Pal-Nle-Phe2F-Nle-NMe3Pal-amBCP)] (cyclo([3Pal][Nle][Phe(2-F)][Nle][NMe3Pal][X1][PhLac][NMeS])), the EC50 is greater than 50.8 µM.

Take `CCCC[C@@H]1NC(=O)[C@H](Cc2cccnc2)NC(=O)[C@H](C)N(C)C(=O)[C@H](Cc2ccccc2)OC(=O)C23CC(CNC(=O)[C@H](Cc4cccnc4)N(C)C(=O)[C@H](CCC)NC(=O)[C@H](Cc4ccccc4F)NC1=O)(C2)C3` [compound 116, cyclo(FLac-NMeA-3Pal-Nle-Phe2F-Nva-NMe3Pal-amBCP)] (cyclo([3Pal][Nle][Phe(2-F)][Nva][NMe3Pal][X1][PhLac][NMeA])): the EC50 was greater than 50.8 µM. `CCCC[C@@H]1NC(=O)[C@H](Cc2ccccc2F)NC(=O)[C@H](CC2CCCC2)NC(=O)[C@H](Cc2cncnc2)NC(=O)[C@H](C)N(C)C(=O)[C@H](Cc2ccccc2)OC(=O)C23CC(CNC(=O)[C@H](Cc4cccnc4)N(C)C1=O)(C2)C3` [compound 126, cyclo(FLac-NMeA-PyrimAla-cPeA-Phe2F-Nle-NMe3Pal-amBCP)] (cyclo([Ala(cPent)][Phe(2-F)][Nle][NMe3Pal][X1][PhLac][NMeA][Ala(pyrimidin-5-yl)])) had an EC50 of 17.4 µM. Still for that read-out and setting: in the case of `CCCC[C@@H]1NC(=O)[C@H](Cc2ccccc2F)NC(=O)[C@H](CCCC)OC(=O)[C@H](Cc2cccnc2)NC(=O)[C@H](CCN=[N+]=[N-])N(C)C(=O)[C@H](Cc2ccccc2)NC(=O)C23CC(CNC(=O)[C@H](Cc4cccnc4)N(C)C1=O)(C2)C3` [compound 250, cyclo(F-NMeDabN3-3Pal-NleLac-Phe2F-Nle-NMe3Pal-amBCP)] (cyclo(F[NMeAha][3Pal][X9][Phe(2-F)][Nle][NMe3Pal][X1])) it was greater than 50.8 µM; in that of `CC(C)CC[C@@H]1NC(=O)[C@H](Cc2cccnc2F)NC(=O)[C@H](CC2CC2)NC(=O)[C@H](Cc2cncnc2)NC(=O)[C@H](C)N(C)C(=O)[C@H](Cc2ccccc2)OC(=O)C23CC(CNC(=O)[C@H](Cc4ccccc4)N(C)C1=O)(C2)C3` [compound 215, cyclo(FLac-NMeA-PyrimAla-cPrA-3Pal2F-hL-NMeF-amBCP)] (cyclo([Ala(cPr)][X46][hLeu][NMeF][X1][PhLac][NMeA][Ala(pyrimidin-5-yl)])), 4.18 µM; in that of `CCCCC[C@@H]1NC(=O)[C@H](Cc2ccc(OC)cc2)NC(=O)[C@H](CC2CCC2)NC(=O)[C@H](Cc2ccc(NC(=N)N)cc2)NC(=O)CN(CCCNC(C)=O)C(=O)[C@H](Cc2ccccc2)NC(=O)CSC[C@@](C)(C(N)=O)NC(=O)[C@H](Cc2ccccc2)N(C)C1=O` [compound 387, cyclo(F-AcApG-Phe4Gn-cBuA-TyrOMe-Ahp-NMcF-aMeCl-ClAc)] ({CH2CO}-F[X12][Phe(4-guanidino)][Cba]Y(Me)[Ahp(2)][NMeF][αMeC]-NH2; thioether N-8), greater than 50.8 µM.

For the molecule `CCCC[C@@H]1NC(=O)[C@H](Cc2cncnc2)NC(=O)[C@H](CCCn2ccnc2)N(C)C(=O)[C@H](Cc2ccccc2)OC(=O)C23CC(CNC(=O)[C@H](Cc4ccccc4)N(C)C(=O)[C@H](CCCC)NC(=O)[C@H](Cc4ccccc4F)NC1=O)(C2)C3` (single isomer, unassigned) [compound 223, cyclo(FLac-NMeNvalmid-PyrimAla-Nle-Phe2F-Nle-NMeF-amBCP)], the EC50 is 11.1 µM. Still for that read-out and setting: the figure for `CCCC[C@@H]1NC(=O)[C@H](Cc2ccc(C(F)(F)F)nc2)NC(=O)[C@H](CCCn2ccnc2)N(C)C(=O)[C@H](Cc2ccccc2)OC(=O)C23CC(CNC(=O)[C@H](Cc4ccccc4)N(C)C(=O)[C@H](CCCC)NC(=O)[C@H](Cc4ccccc4F)NC1=O)(C2)C3` (single isomer, unassigned) [compound 219, cyclo(FLac-NMeNvaImid-4CF33Pal-Nle-Phe2F-Nle-NMeF-amBCP)] is greater than 50.8 µM. Still for that read-out and setting: in the case of `CC(C)CC[C@@H]1NC(=O)[C@H](Cc2ccccc2F)NC(=O)[C@H](CC2CC2)NC(=O)[C@H](Cc2cncnc2)NC(=O)[C@H](CCCF)N(C)C(=O)[C@H](Cc2ccccc2)OC(=O)C23CC(CNC(=O)[C@H](Cc4ccccc4)N(C)C1=O)(C2)C3` [compound 216, cyclo(FLac-NMeNvaF-PyrimAla-cPrA-Phe2F-hL-NMeF-amBCP)] (cyclo([Ala(cPr)][Phe(2-F)][hLeu][NMeF][X1][PhLac][X35][Ala(pyrimidin-5-yl)])) it was 1.23 µM; in that of `CC(C)CC[C@@H]1NC(=O)[C@H](Cc2ccccc2F)NC(=O)[C@H](CC2CCCC2)NC(=O)[C@H](Cc2cncnc2)NC(=O)[C@H](C)N(C)C(=O)[C@H](Cc2ccccc2)OC(=O)C23CC(CNC(=O)[C@H](Cc4cncnc4)N(C)C1=O)(C2)C3` [compound 335, cyclo(FLac-NMeA-PyrimAla-cPeA-Phe2F-hL-NMeAlaPyrim-amBCP)] (cyclo([Ala(cPent)][Phe(2-F)][hLeu][X3][X1][PhLac][NMeA][Ala(pyrimidin-5-yl)])), 5.27 µM; in that of `CCCCC[C@@H]1NC(=O)[C@H](Cc2ccc(OC)cc2)NC(=O)[C@H](CC2CCC2)NC(=O)[C@H](Cc2ccc(-c3cccnc3N)cc2)NC(=O)[C@H](CCCNC(=N)N)NC(=O)[C@H](Cc2ccccc2)NC(=O)CSC[C@@](C)(C(N)=O)NC(=O)[C@H](Cc2ccccc2)N(C)C1=O` [compound 390, cyclo(F-R-Phe43PyNH2-cBuA-TyrOMe-Ahp-NMeF-aMeCl-ClAc)], greater than 50.8 µM. Same read-out and setting: the figure for `CCCC[C@@H]1NC(=O)[C@H](Cc2ccc(NC(=N)N)cc2)NC(=O)[C@H](CCCN(C)C(=N)NC)N(C)C(=O)[C@H](Cc2ccccc2)NC(=O)[C@H]2C[C@@H](CNC(=O)[C@H](Cc3ccccc3)N(C)C(=O)[C@H](CCCC)NC(=O)[C@H](Cc3ccc(OC)cc3)NC1=O)C2` [compound 384, cyclo(F-NMeArg1MeMe-Phe4Gn-Nle-TyrOMe-Nle-NMeF-c3amCblc)] (cyclo(F[X22][Phe(4-guanidino)][Nle]Y(Me)[Nle][NMeF][cBu(1-CO,cis-3-CH2NH)])) is greater than 50.8 µM; for `CCCC[C@@H]1NC(=O)[C@H](Cc2ccccc2F)NC(=O)[C@H](CCC(C)C)NC(=O)[C@H](Cc2cncnc2)NC(=O)[C@H](C)N(C)C(=O)[C@H](Cc2ccccc2)OC(=O)C23CC(CNC(=O)[C@H](Cc4cccnc4)N(C)C1=O)(C2)C3` [compound 127, cyclo(FLac-NMeA-PyrimAla-hL-Phe2F-Nle-NMe3Pal-amBCP)] (cyclo([NMe3Pal][X1][PhLac][NMeA][Ala(pyrimidin-5-yl)][hLeu][Phe(2-F)][Nle])) it is greater than 50.8 µM. `CCCC[C@@H]1NC(=O)[C@H](Cc2ccccc2F)NC(=O)[C@H](CC(C)C)NC(=O)[C@H](Cc2cncnc2)NC(=O)[C@H](C)N(C)C(=O)[C@H](Cc2ccccc2)OC(=O)C23CC(CNC(=O)[C@H](Cc4cccnc4)N(C)C1=O)(C2)C3` [compound 129, cyclo(FLac-NMeA-PyrimAla-L-Phe2F-Nle-NMe3Pal-amBCP)] (cyclo([PhLac][NMeA][Ala(pyrimidin-5-yl)]L[Phe(2-F)][Nle][NMe3Pal][X1])) gave an EC50 greater than 50.8 µM. Same read-out and setting: the figure for `CCCCC[C@@H]1NC(=O)[C@H](Cc2ccc(OC)cc2)NC(=O)[C@H](CC2CCC2)NC(=O)[C@H](Cc2cccnc2)NC(=O)[C@H](CCCNC(=N)N)NC(=O)[C@H](Cc2ccccc2)NC(=O)CSC[C@@](C)(C(N)=O)NC(=O)[C@H](Cc2cn(C)cn2)N(C)C1=O` [compound 378, cyclo(F-R-3Pal-cBuA-TyrOMe-Ahp-NMeHis1Me-aMeCl-ClAc)] ({CH2CO}-FR[3Pal][Cba]Y(Me)[Ahp(2)][NMeHis(τ-Me)][αMeC]-NH2; thioether N-8) is greater than 50.8 µM; for `CC(C)CC[C@@H]1NC(=O)[C@H](Cc2cnn(C3COC3)c2)NC(=O)[C@H](CC2CC2)NC(=O)[C@H](Cc2cncnc2)NC(=O)[C@H](C)N(C)C(=O)[C@H](Cc2ccccc2)OC(=O)C23CC(CNC(=O)[C@H](Cc4ccccc4)N(C)C1=O)(C2)C3` [compound 300, cyclo(FLac-NMeA-PyrimAla-cPrA-AlaPyz1Ox-hL-NMeF-amBCP)] (cyclo([Ala(cPr)][X6][hLeu][NMeF][X1][PhLac][NMeA][Ala(pyrimidin-5-yl)])) it is greater than 50.8 µM.
